The values that follow are results of earlier work, collected in patent US7586020B2, “Methods for determining effects of maternal treatments on offspring” (priority 1998, dated 2009).

The structures appear in SMILES notation.

This series relates to (YS×VY)FI female mice. The note with it: between about 17 and 24 months of age.

Regarding `Cl[C@H]1[C@H](Cl)[C@@H](Cl)[C@@H](Cl)[C@H](Cl)[C@H]1Cl` [lindane], the “mortality, lindane-treated versus untreated control mice” value is on record as “no differences in mortality”.
